In PubChem BioAssay (NCI):
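Method: 48-hour compound exposure of cells in 96-well plates, five concentrations, linear interpolation of endpoints. The concentration for full growth arrest is given as TGI.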

Experiments:
Test in all cases: NCI-60 cell line screen, 48 h
786-0 renal = test system: 786-0 renal
A498 renal = test system: A498 renal
A549 NSCLC = test system: A549 NSCLC
ACHN renal = test system: ACHN renal
CAKI-1 renal = test system: CAKI-1 renal
CCRF-CEM leukemia = test system: CCRF-CEM leukemia
COLO 205 colon = test system: COLO 205 colon
DLD-1 colon = test system: DLD-1 colon
DMS 114 small cell lung = test system: DMS 114 small cell lung
DMS 273 small cell lung = test system: DMS 273 small cell lung
EKVX NSCLC = test system: EKVX NSCLC
HCT-116 colon = test system: HCT-116 colon
HCT-15 colon = test system: HCT-15 colon
HL-60(TB) leukemia = test system: HL-60(TB) leukemia
HOP-18 NSCLC = test system: HOP-18 NSCLC
HOP-92 NSCLC = test system: HOP-92 NSCLC
HT29 colon = test system: HT29 colon
IGROV1 ovarian = test system: IGROV1 ovarian
K-562 leukemia = test system: K-562 leukemia
KM12 colon = test system: KM12 colon
LOX IMVI melanoma = test system: LOX IMVI melanoma
LXFL 529 NSCLC = test system: LXFL 529 NSCLC
M14 melanoma = test system: M14 melanoma
M19-MEL melanoma = test system: M19-MEL melanoma
MALME-3M melanoma = test system: MALME-3M melanoma
MOLT-4 leukemia = test system: MOLT-4 leukemia
NCI-H226 lung = test system: NCI-H226 lung
NCI-H23 lung = test system: NCI-H23 lung
NCI-H460 lung = test system: NCI-H460 lung
NCI-H522 lung = test system: NCI-H522 lung
OVCAR-3 ovarian = test system: OVCAR-3 ovarian
OVCAR-8 ovarian = test system: OVCAR-8 ovarian
RPMI-8226 leukemia = test system: RPMI-8226 leukemia
RXF 393 renal = test system: RXF 393 renal
SF-295 CNS = test system: SF-295 CNS
SF-539 CNS = test system: SF-539 CNS
SK-MEL-28 melanoma = test system: SK-MEL-28 melanoma
SK-MEL-5 melanoma = test system: SK-MEL-5 melanoma
SK-OV-3 ovarian = test system: SK-OV-3 ovarian
SN12C renal = test system: SN12C renal
SNB-75 CNS = test system: SNB-75 CNS
SNB-78 CNS = test system: SNB-78 CNS
SW-620 colon = test system: SW-620 colon
TK-10 renal = test system: TK-10 renal
U251 CNS = test system: U251 CNS
UACC-257 melanoma = test system: UACC-257 melanoma
UACC-62 melanoma = test system: UACC-62 melanoma
UO-31 renal = test system: UO-31 renal
BT-549 breast = test system: BT-549 breast
DU-145 prostate = test system: DU-145 prostate
HCC-2998 colon = test system: HCC-2998 colon
HOP-62 NSCLC = test system: HOP-62 NSCLC
HS 578T breast = test system: HS 578T breast
MCF7 breast = test system: MCF7 breast
MDA-MB-231 breast = test system: MDA-MB-231 breast
MDA-MB-435 = test system: MDA-MB-435
MDA-N = test system: MDA-N
NCI/ADR-RES ovarian = test system: NCI/ADR-RES ovarian
OVCAR-4 ovarian = test system: OVCAR-4 ovarian
OVCAR-5 ovarian = test system: OVCAR-5 ovarian
PC-3 prostate = test system: PC-3 prostate
SF-268 CNS = test system: SF-268 CNS
SK-MEL-2 melanoma = test system: SK-MEL-2 melanoma
SNB-19 CNS = test system: SNB-19 CNS
SR leukemia = test system: SR leukemia
T-47D breast = test system: T-47D breast

Structure (SMILES): Cc1cc(O)cc2c1O[C@@]1(C)CCC3[C@@]4(C)CC[C@H](O)C(C)(C)C4CC[C@@]3(C)[C@H]1C2 (stereo partly specified)
- TGI (786-0 renal): 4.72 µM
- TGI (A498 renal): 36.3 µM
- TGI (A549 NSCLC): 19.6 µM
- TGI (ACHN renal): 19 µM
- TGI (CAKI-1 renal): 20.6 µM
- TGI (CCRF-CEM leukemia): 7.08 µM
- TGI (COLO 205 colon): 33.4 µM
- TGI (DLD-1 colon): 12.6 µM
- TGI (DMS 114 small cell lung): 19.9 µM
- TGI (DMS 273 small cell lung): 11.6 µM
- TGI (EKVX NSCLC): 31.4 µM
- TGI (HCT-116 colon): 16.1 µM
- TGI (HCT-15 colon): 12.7 µM
- TGI (HL-60(TB) leukemia): 13.5 µM
- TGI (HOP-18 NSCLC): 27.8 µM
- TGI (HOP-92 NSCLC): 9.78 µM
- TGI (HT29 colon): 28.2 µM
- TGI (IGROV1 ovarian): 30.2 µM
- TGI (K-562 leukemia): 6.56 µM
- TGI (KM12 colon): 21.4 µM
- TGI (LOX IMVI melanoma): 20.6 µM
- TGI (LXFL 529 NSCLC): 7.64 µM
- TGI (M14 melanoma): 24.3 µM
- TGI (M19-MEL melanoma): 25 µM
- TGI (MALME-3M melanoma): 24.1 µM
- TGI (MOLT-4 leukemia): 4 µM
- TGI (NCI-H226 lung): 24.9 µM
- TGI (NCI-H23 lung): 29.2 µM
- TGI (NCI-H460 lung): 17.5 µM
- TGI (NCI-H522 lung): 21.9 µM
- TGI (OVCAR-3 ovarian): 19.8 µM
- TGI (OVCAR-8 ovarian): 27 µM
- TGI (RPMI-8226 leukemia): 5.07 µM
- TGI (RXF 393 renal): 13.3 µM
- TGI (SF-295 CNS): 6.16 µM
- TGI (SF-539 CNS): 6.43 µM
- TGI (SK-MEL-28 melanoma): 20.3 µM
- TGI (SK-MEL-5 melanoma): 19 µM
- TGI (SK-OV-3 ovarian): 12.5 µM
- TGI (SN12C renal): 25.4 µM
- TGI (SNB-75 CNS): 11.8 µM
- TGI (SNB-78 CNS): 22.1 µM
- TGI (SW-620 colon): 23.5 µM
- TGI (TK-10 renal): 29 µM
- TGI (U251 CNS): 11.5 µM
- TGI (UACC-257 melanoma): 29.2 µM
- TGI (UACC-62 melanoma): 21.9 µM
- TGI (UO-31 renal): 22.6 µM

Structure (SMILES): Oc1ccc(Cn2c(-c3ccc(O)c(O)c3)nc3ccccc32)cc1O
- TGI (786-0 renal): 29 µM
- TGI (A498 renal): > 100 µM
- TGI (A549 NSCLC): 66.2 µM
- TGI (ACHN renal): 60.2 µM
- TGI (BT-549 breast): 51 µM
- TGI (CAKI-1 renal): 54.6 µM
- TGI (CCRF-CEM leukemia): 32.8 µM
- TGI (COLO 205 colon): 31.1 µM
- TGI (DU-145 prostate): 66.9 µM
- TGI (EKVX NSCLC): 75.7 µM
- TGI (HCC-2998 colon): 27.3 µM
- TGI (HCT-116 colon): 16.3 µM
- TGI (HCT-15 colon): > 100 µM
- TGI (HL-60(TB) leukemia): 51.1 µM
- TGI (HOP-62 NSCLC): 38 µM
- TGI (HOP-92 NSCLC): 41.9 µM
- TGI (HS 578T breast): 35.2 µM
- TGI (HT29 colon): 84.7 µM
- TGI (IGROV1 ovarian): 66.4 µM
- TGI (K-562 leukemia): 55.9 µM
- TGI (KM12 colon): 35 µM
- TGI (LOX IMVI melanoma): 26 µM
- TGI (M14 melanoma): 42.2 µM
- TGI (MALME-3M melanoma): 41.4 µM
- TGI (MCF7 breast): > 100 µM
- TGI (MDA-MB-231 breast): 43.3 µM
- TGI (MDA-MB-435): 32 µM
- TGI (MDA-N): > 100 µM
- TGI (MOLT-4 leukemia): 12.4 µM
- TGI (NCI-H226 lung): 22.4 µM
- TGI (NCI-H23 lung): 75.4 µM
- TGI (NCI-H460 lung): 63.4 µM
- TGI (NCI-H522 lung): 17.1 µM
- TGI (NCI/ADR-RES ovarian): > 100 µM
- TGI (OVCAR-3 ovarian): 41.3 µM
- TGI (OVCAR-4 ovarian): 54.1 µM
- TGI (OVCAR-5 ovarian): > 100 µM
- TGI (OVCAR-8 ovarian): 25.5 µM
- TGI (PC-3 prostate): > 100 µM
- TGI (RPMI-8226 leukemia): 46.1 µM
- TGI (RXF 393 renal): > 100 µM
- TGI (SF-268 CNS): > 100 µM
- TGI (SF-295 CNS): 68 µM
- TGI (SF-539 CNS): 24.1 µM
- TGI (SK-MEL-2 melanoma): 39 µM
- TGI (SK-MEL-28 melanoma): 78 µM
- TGI (SK-MEL-5 melanoma): 50.9 µM
- TGI (SK-OV-3 ovarian): 59.6 µM
- TGI (SN12C renal): 40.6 µM
- TGI (SNB-19 CNS): 83.4 µM
- TGI (SNB-75 CNS): 39.4 µM
- TGI (SR leukemia): 18.2 µM
- TGI (SW-620 colon): 42.1 µM
- TGI (T-47D breast): 45.1 µM
- TGI (TK-10 renal): 38 µM
- TGI (U251 CNS): 47.1 µM
- TGI (UACC-257 melanoma): > 100 µM
- TGI (UO-31 renal): 47.3 µM
